# From article PMC9866191, “Novel 9-Benzylaminoacridine Derivatives as Dual Inhibitors of Phosphodiesterase 5 and Topoisomerase II for the Treatment of Colon Cancer” (Molecules, 2023)
# Legend:
# [1] = test system: 786-0; test: NCI-60 one-dose screen; type: cell-based; conditions: Homo sapiens; 786-0, Renal Cancer panel; single dose 10^−5 M; read-out: Growth inhibition %
# [2] = test system: A498; test: NCI-60 one-dose screen; type: cell-based; conditions: Homo sapiens; A498, Renal Cancer panel; single dose 10^−5 M; read-out: Growth inhibition %
# [3] = test system: A549/ATCC; test: NCI-60 one-dose screen; type: cell-based; conditions: Homo sapiens, Non-small cell lung panel, single dose 10^−5 M, read-out: Growth inhibition %
# [4] = test system: BT-549; test: NCI-60 one-dose screen; type: cell-based; conditions: Homo sapiens; BT-549, Breast Cancer panel; single dose 10^−5 M; read-out: Growth inhibition %
# [5] = test system: DU-145; test: NCI-60 one-dose screen; type: cell-based; conditions: Homo sapiens; DU-145, Prostate Cancer panel; single dose 10^−5 M; read-out: Growth inhibition %
# [6] = test system: EKVX; test: NCI-60 one-dose screen; type: cell-based; conditions: Homo sapiens, Non-small cell lung panel, single dose 10^−5 M, read-out: Growth inhibition %
# [7] = test system: HCT-116; test: NCI-60 one-dose screen; type: cell-based; conditions: Homo sapiens, read-out: Growth inhibition %
# [8] = test system: HL-60(TB); test: NCI-60 one-dose screen; type: cell-based; conditions: Homo sapiens, Leukemia panel, single dose 10^−5 M, read-out: Growth inhibition %
# [9] = test system: HOP-62; test: NCI-60 one-dose screen; type: cell-based; conditions: Homo sapiens; HOP-62, Non-small cell lung panel; single dose 10^−5 M; read-out: Growth inhibition %
# [10] = test system: HS 578T; test: NCI-60 one-dose screen; type: cell-based; conditions: Homo sapiens, Breast Cancer panel, single dose 10^−5 M, read-out: Growth inhibition %
# [11] = test system: HT29; test: NCI-60 one-dose screen; type: cell-based; conditions: Homo sapiens, HT-29; HT29, Colon Cancer panel; single dose 10^−5 M; read-out: Growth inhibition %
# [12] = test system: MALME-3M; test: NCI-60 one-dose screen; type: cell-based; conditions: Homo sapiens, Melanoma panel, single dose 10^−5 M, read-out: Growth inhibition %
# [13] = test system: MCF7; test: NCI-60 one-dose screen; type: cell-based; conditions: Homo sapiens; MCF7, Breast Cancer panel; single dose 10^−5 M; read-out: Growth inhibition %
# [14] = test system: MDA-MB-231/ATCC; test: NCI-60 one-dose screen; type: cell-based; conditions: Homo sapiens, Breast Cancer panel, single dose 10^−5 M, read-out: Growth inhibition %
# [15] = test system: MDA-MB-468; test: NCI-60 one-dose screen; type: cell-based; conditions: Homo sapiens; MDA-MB-468, Breast Cancer panel; single dose 10^−5 M; read-out: Growth inhibition %
# [16] = test system: MOLT-4; test: NCI-60 one-dose screen; type: cell-based; conditions: Homo sapiens; MOLT-4, Leukemia panel; single dose 10^−5 M; read-out: Growth inhibition %
# [17] = test system: NCI-H226; test: NCI-60 one-dose screen; type: cell-based; conditions: Homo sapiens; NCI-H226, Non-small cell lung panel; single dose 10^−5 M; read-out: Growth inhibition %
# [18] = test system: NCI-H23; test: NCI-60 one-dose screen; type: cell-based; conditions: Homo sapiens; NCI-H23, Non-small cell lung panel; single dose 10^−5 M; read-out: Growth inhibition %
# [19] = test system: NCI-H322M; test: NCI-60 one-dose screen; type: cell-based; conditions: Homo sapiens, Non-small cell lung panel, single dose 10^−5 M, read-out: Growth inhibition %
# [20] = test system: NCI-H460; test: NCI-60 one-dose screen; type: cell-based; conditions: Homo sapiens; NCI-H460, Non-small cell lung panel; single dose 10^−5 M; read-out: Growth inhibition %
# [21] = test system: OVCAR-4; test: NCI-60 one-dose screen; type: cell-based; conditions: Homo sapiens; OVCAR-4, Ovarian Cancer panel; single dose 10^−5 M; read-out: Growth inhibition %
# [22] = test system: OVCAR-5; test: NCI-60 one-dose screen; type: cell-based; conditions: Homo sapiens; OVCAR-5, Ovarian Cancer panel; single dose 10^−5 M; read-out: Growth inhibition %
# [23] = test system: OVCAR-8; test: NCI-60 one-dose screen; type: cell-based; conditions: Homo sapiens; OVCAR-8, Ovarian Cancer panel; single dose 10^−5 M; read-out: Growth inhibition %
# [24] = test system: PC-3; test: NCI-60 one-dose screen; type: cell-based; conditions: Homo sapiens; PC-3, Prostate Cancer panel; single dose 10^−5 M; read-out: Growth inhibition %
# [25] = test system: RPMI-8226; test: NCI-60 one-dose screen; type: cell-based; conditions: Homo sapiens; RPMI-8226, Leukemia panel; single dose 10^−5 M; read-out: Growth inhibition %
# [26] = test system: RXF 393; test: NCI-60 one-dose screen; type: cell-based; conditions: Homo sapiens; RXF 393, Renal Cancer panel; single dose 10^−5 M; read-out: Growth inhibition %
# [27] = test system: SF-539; test: NCI-60 one-dose screen; type: cell-based; conditions: Homo sapiens; SF-539, CNS Cancer panel; single dose 10^−5 M; read-out: Growth inhibition %
# [28] = test system: SNB-19; test: NCI-60 one-dose screen; type: cell-based; conditions: Homo sapiens; SNB-19, CNS Cancer panel; single dose 10^−5 M; read-out: Growth inhibition %
# [29] = test system: TK-10; test: NCI-60 one-dose screen; type: cell-based; conditions: Homo sapiens; TK-10, Renal Cancer panel; single dose 10^−5 M; read-out: Growth inhibition %
# [30] = test system: UACC-62; test: NCI-60 one-dose screen; type: cell-based; conditions: Homo sapiens; UACC-62, Melanoma panel; single dose 10^−5 M; read-out: Growth inhibition %
# [31] = test system: UO-31; test: NCI-60 one-dose screen; type: cell-based; conditions: Homo sapiens; UO-31, Renal Cancer panel; single dose 10^−5 M; read-out: Growth inhibition %
# [32] = test system: HCT-116; test: MTT cell proliferation assay, HCT-116; conditions: for % Inhibition at 10 µM: 72 h MTT, means ± SD; for IC50: read-out: IC50 μM, 72 h MTT, means ± SD, three experiments
# [33] = test system: CCD-966SK; test: MTT cell proliferation assay, CCD-966SK; conditions: CCD966SK skin fibroblast, 72 h MTT; for IC50: read-out: IC50 μM
# Protocol: In the MTT assay, 96-well culture plates were used. A total of 7 × 10^4 cells per well were seeded, and test materials were added to the cells at various concentrations [47, 48]. Human cancer and non-cancer cell lines were purchased commercially from the American Type Culture Collection (ATCC). After 72 h, the cytotoxicity of the compounds and paclitaxel (as a positive control group) was detected using the MTT method (thiazolyl blue tetrazolium bromide, Sigma-M2128). Absorbance values at 570 and 620 nm (OD = OD570–OD620) were measured using an ELISA reader (Anthos Labtec Instruments, Salzburg, Austria).
SMILES,inhibition at 10 µM [1] [%],inhibition at 10 µM [2] [%],inhibition at 10 µM [3] [%],inhibition at 10 µM [4] [%],inhibition at 10 µM [5] [%],inhibition at 10 µM [6] [%],inhibition at 10 µM [7] [%],inhibition at 10 µM [8] [%],inhibition at 10 µM [9] [%],inhibition at 10 µM [10] [%],inhibition at 10 µM [11] [%],inhibition at 10 µM [12] [%],inhibition at 10 µM [13] [%],inhibition at 10 µM [14] [%],inhibition at 10 µM [15] [%],inhibition at 10 µM [16] [%],inhibition at 10 µM [17] [%],inhibition at 10 µM [18] [%],inhibition at 10 µM [19] [%],inhibition at 10 µM [20] [%],also measured
"c1ccc(CNc2c3ccccc3nc3ccccc23)cc1 [Compound 1, Acridin-9-yl-benzyl-amine]",65.7,83.4,71.5,27.2,51.4,51.9,91.6,56.2,54,43.9,81,62.6,88,42.1,80.7,84.5,48.3,58.8,53.7,89.7,inhibition at 10 µM [21]: 56.8%; inhibition at 10 µM [22]: 54.3%; inhibition at 10 µM [23]: 73.9%; inhibition at 10 µM [24]: 62.8%; inhibition at 10 µM [25]: 92.3%; inhibition at 10 µM [26]: 58.1%; inhibition at 10 µM [27]: 76%; inhibition at 10 µM [28]: 60.6%; inhibition at 10 µM [29]: 51.3%; inhibition at 10 µM [30]: 39%; inhibition at 10 µM [31]: 76.2%; % Inhibition at 10 µM [32]: 67.16 ± 2.40%; IC50 [32]: 2.81 ± 0.2 µM; % Inhibition at 10 µM [33]: 47.97 ± 1.96%
"Cc1ccccc1CNc1c2ccccc2nc2ccccc12 [Compound 2, Acridin-9-yl-(2-methylbenzyl)-amine]",75.7,102,80.3,44.1,69.4,61.6,92.1,84.7,71.9,64.3,91.1,84.8,93.1,60.1,94.2,91.2,68.5,76.6,71,93.1,inhibition at 10 µM [21]: 67.1%; inhibition at 10 µM [22]: 63.3%; inhibition at 10 µM [23]: 79%; inhibition at 10 µM [24]: 74.4%; inhibition at 10 µM [25]: 109%; inhibition at 10 µM [26]: 92.2%; inhibition at 10 µM [27]: 96.7%; inhibition at 10 µM [28]: 72.9%; inhibition at 10 µM [29]: 61.4%; inhibition at 10 µM [30]: 53.3%; inhibition at 10 µM [31]: 84.5%; % Inhibition at 10 µM [32]: 66.96 ± 0.14%; IC50 [32]: 4.01 ± 0.17 µM; % Inhibition at 10 µM [33]: 59.74 ± 0.55%; IC50 [33]: 4.18 ± 0.36 µM
"Cc1cccc(CNc2c3ccccc3nc3ccccc23)c1 [Compound 3, Acridin-9-yl-(3-methylbenzyl)-amine]",75.8,102,77.4,32.7,66.1,55.5,90.2,87.5,59.6,69.7,94.8,85.9,93.8,61.3,100,97.7,59.4,70.3,59.7,91.3,inhibition at 10 µM [21]: 72.1%; inhibition at 10 µM [22]: 64.2%; inhibition at 10 µM [23]: 79.7%; inhibition at 10 µM [24]: 75.1%; inhibition at 10 µM [25]: 120%; inhibition at 10 µM [26]: 102%; inhibition at 10 µM [27]: 88.3%; inhibition at 10 µM [28]: 70.3%; inhibition at 10 µM [29]: 61.6%; inhibition at 10 µM [30]: 57.2%; inhibition at 10 µM [31]: 85.3%; % Inhibition at 10 µM [32]: 66.71 ± 2.10%; IC50 [32]: 4.6 ± 0.07 µM; % Inhibition at 10 µM [33]: 54.31 ± 0.98%; IC50 [33]: 8.51 ± 0.07 µM
